Results taken from patent publication US20230220047A1, “PEPTIDES FOR TREATMENT OF SEPSIS AND CANCER” (NORWEGIAN UNIVERSITY OF SCIENCE AND TECHNOLOGY (NTNU), priority 2020, published 2023).
Entries after “also recorded” stand apart in the source; their conditions may differ.

Tests used:
TLR4 = test: Whole blood assay, LPS stimulation; assay type: cell-based, human
From the text: (§1) […] Results are for at least 6 donors. The Wilcoxon matched-pairs signed rank test was used for statistical analysis between 2 groups in Prizm 8.2.1. In each graph, circles indicate whole blood pre-treated with water, squares indicate blood pre-treated with control peptide (average for treatment with Pen and C3-Pen), and triangles indicate pre-treatment with P7-Pen.
To evaluate the effect of peptides in an ex vivo system, a human whole blood model was used. Peripheral venous blood was drawn from 6 healthy donors into sterile polypropylene tubes (Thermo Scientific™ Nunc™ Biobanking and Cell Culture Cryogenic Tubes) containing the anti-coagulant Lepirudin (Refludan®; Celgene). […] Peptide solution or DPBS was distributed in equal volume (50 μL) to 1.8 mL sterile polypropylene tubes (Thermo Scientific™Nunc™ Biobanking and Cell Culture Cryogenic Tubes). […] Stimulation solutions were made by diluting K12 LPS or CL075 in DPBS to obtain a final concentration in whole blood of 100 ng/mL (LPS) or 1 μg/mL (CL075) after addition of 50 μL stimulation solution or DPBS. […] Tubes were incubated at 37° C. under constant rotation for 4 h. Finally, plasma was isolated from the whole blood specimens by centrifugation, collected in 96 well plates (Corning® 96 Well CellBIND® Microplates), and stored at −20/−80° C. until analysis by multiplex/27-plex cytokine assay or IFNβ ELISA (VeriKine-HS Human Interferon Beta Serum ELISA Kit; pbl Assay Science).

TLR8 = test: Whole blood assay, CL075 stimulation; assay type: cell-based, human
From the text: as §1
To evaluate the effect of peptides in an ex vivo system, a human whole blood model was used. Peripheral venous blood was drawn from 6 healthy donors into sterile polypropylene tubes (Thermo Scientific™ Nunc™ Biobanking and Cell Culture Cryogenic Tubes) containing the anti-coagulant Lepirudin (Refludan®; Celgene). Peptide solutions were made by diluting peptide stocks in DPBS (Dulbecco's Phosphate Buffered Saline with MgCl2 and CaCl2; Sigma-Aldrich) to obtain a final concentration of 140 μM. Peptide solution or DPBS was distributed in equal volume (50 μL) to 1.8 mL sterile polypropylene tubes (Thermo Scientific™Nunc™ Biobanking and Cell Culture Cryogenic Tubes). 250 μL whole blood was then added to the 1.8 mL tubes containing peptide solution or DPBS, and incubated at 37° C. under constant rotation for 1 h (concentration of peptides for pre-incubation: 23.3 μM). Stimulation solutions were made by diluting K12 LPS or CL075 in DPBS to obtain a final concentration in whole blood of 100 ng/mL (LPS) or 1 μg/mL (CL075) after addition of 50 μL stimulation solution or DPBS. Concentration of peptides in whole blood samples was reduced by this to 20 μM. Tubes were incubated at 37° C. under constant rotation for 4 h. Finally, plasma was isolated from the whole blood specimens by centrifugation, collected in 96 well plates (Corning® 96 Well CellBIND® Microplates), and stored at −20/−80° C. until analysis by multiplex/27-plex cytokine assay or IFNβ ELISA (VeriKine-HS Human Interferon Beta Serum ELISA Kit; pbl Assay Science).

| Substance | TLR4-mediated IFNβ release by whole blood cells (TLR4; 20 μM, LPS 100 ng/ml 4 h) | LPS/TLR4-induced TNF, IL-6 and IL-1β secretion (TLR4; 20 μM, compared to control peptides) | TLR8-mediated pro-inflammatory cytokine secretion (TLR8; 20 μM, CL075) | TLR8-mediated IFNβ release/secretion by whole blood cells (TLR8; 20 μM, CL075 1 μg/ml 4 h) | LPS-mediated IFNβ secretion by whole blood cells (TLR4; pilot assay, 10 μM, LPS 100 ng/ml) | CL075-mediated IFNβ secretion by whole blood cells (TLR8; pilot assay, 10 μM, CL075 1 μg/ml) |
| --- | --- | --- | --- | --- | --- | --- |
| Ac-ITVYASVTLTGRQIKIWFQNRRMKWKK-NH2 [Peptide P7-Pen] | effectively abrogated | significant reduction | no significant effect | effectively abrogated; also recorded: inhibited | – | – |
| Ac-ITVYASVTLTGRRRRRRRRRRR-NH2 [Peptide P7-Arg11] | – | – | – | – | inhibited | inhibited |
